These results are taken from patent US20240092784A1, “CONDENSED HETEROCYCLIC COMPOUND” (NISSAN CHEMICAL CORPORATION, priority 2020, published 2024).

Assay [1] concerns the target T1, human SPR (Homo sapiens (Human), UniProt P35270). As to the kind of experiment: Evaluation Example 1: Measurement of human SPR inhibitory activity (sepiapterin absorbance at 420 nm). The format is biochemical. The settings on record: 240 minutes at room temperature. The protocol: Human SPR was prepared as described below. The full-length human SPR (1-261) cDNA was purchased from Eurofins Genomics as an artificially synthesized plasmid containing a DNA sequence optimized for the E. coli expression system so that the sequence of the expressed protein after transcription and translation matches the sequence described in UniprotKB (P35270).
Linearized insert and vector were prepared by PCR using primers designed for amplification of human SPR cDNA and primers designed to contain the thrombin recognition sequence of pET28a (Novagen) and a polyhistidine tag. Cloning was performed using In-Fusion (registered trademark) HD Cloning Kit (TaKaRa) to thereby construct a human SPR expression plasmid. The resultant human SPR expression plasmid was transformed into BL21 (DE3) competent cells (INVITROGEN).
The cells were inoculated into LB medium (1% triptone, 0.5% yeast extract, 1% sodium chloride) containing […] of kanamycin, and then precultured at 37° C. overnight. The precultured cells were inoculated into TB medium (1.2% triptone, 2.4% yeast extract, 9.4% dipotassium hydrogen phosphate, 2.2% potassium dihydrogen phosphate, 0.8% glycerin) containing […] of kanamycin, and the cultured at 37° C., to thereby induce SPR expression with 0.5 mM IPTG for four hours. After the induction, the cells were collected by centrifugation at 6,000 G for 30 minutes and washed with PBS, and the washing was discarded. The washed cells were suspended in buffer solution A (20 mM MES, pH 6.5, 100 mM sodium chloride, 1 mM DTT, 5 mM imidazole). Subsequently, the cell suspension was subjected to ultrasonic treatment to thereby homogenize the cells. The cell homogenate was clarified by centrifugation at 30,000 G for 60 minutes and then filtered with a […]. The filtrate was allowed to pass through HisTrapFF 5 mL column (GE Healthcare). The resin was washed with buffer A, and then gradient elution was performed with buffer B (20 mM MES, pH 6.5, 100 mM sodium chloride, 1 mM DTT, 500 mM imidazole). Thrombin was added to a fraction containing the SPR protein, and the mixture was dialyzed in buffer A overnight, to thereby cleave the tag. After removal of the thrombin by with Benzamidine Sepharose 4 FF (GE Healthcare), the resultant product was allowed to pass through the HisTrapFF 5 mL column, to thereby remove the tag, followed by concentration with Amicon Ultra 10,000 NMWL (Merck Millipore). The concentrate was purified by gel filtration using HiLoad 16/60 Superdex 75 pg (GE Healthcare) equilibrated with buffer C (20 mM MES, pH 6.5, 100 mM sodium chloride, 1 mM DTT). The fraction containing SPR protein was concentrated and then cryopreserved at −80° C.
Human SPR inhibitory activity was measured by using a 384-well low adsorption clear plate (Greiner) with buffer D containing 100 mM Tris-HCl (pH 7.5) (Thermo Fisher Scientific) and 0.01% bovine serum albumin (Sigma). A compound was diluted with DMSO to a concentration of 1 mM, and a 1 μL aliquot of the preparation was diluted with 250 μL of buffer D. The thus-diluted compound was dispensed into the 384-well plate at […]. Thereafter, human SPR was diluted with buffer D to 200 ng/mL and then dispensed into the 384-well plate at 20 μL/well. Subsequently, 40 μL of ultrapure water containing 120 μM Sepiapterin (WuXi AppTec) and 120 μM NADPH (Nacalai) was added to each well, and mixed with a vortex mixer, to thereby initiate the reaction. The reaction mixture was incubated at room temperature for 240 minutes, and the reaction was terminated by addition of 10 μL of ultrapure water containing 2% formic acid (Nacalai). In order to determine the amount of sepiapterin after termination of the reaction, the absorbance at 420 nm was measured by applying the 384-well plate to EnSpire multimode plate reader (Perkin Elmer). The percent inhibition (%) of human SPR by the test compound was calculated by the following formula. […]

Assay [2] has as its target T1, human SPR. The assay is described as follows: Evaluation Example 2: Measurement of human SPR inhibitory activity (seven concentrations, sepiapterin absorbance at 420 nm). The format is biochemical. The conditions noted are these: Evaluation Example 2, seven concentrations 0.14 nM to 100 nM, 240 minutes at room temperature, read-out: IC50. In short, it runs like this:
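His-tagged full-length human SPR (1-261) was expressed in E. coli and the tag removed. Enzyme at 150 ng/mL in 100 mM Tris-HCl pH 7.5/0.01% BSA was mixed with compound (0.14–100 nM, seven points), 120 μM sepiapterin and 160 μM NADPH, both as added-solution concentrations. After 240 min at room temperature, remaining sepiapterin was read at 420 nm to give percent inhibition.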

The structures appear in SMILES notation.

T1 sequence (P35270 whole entry): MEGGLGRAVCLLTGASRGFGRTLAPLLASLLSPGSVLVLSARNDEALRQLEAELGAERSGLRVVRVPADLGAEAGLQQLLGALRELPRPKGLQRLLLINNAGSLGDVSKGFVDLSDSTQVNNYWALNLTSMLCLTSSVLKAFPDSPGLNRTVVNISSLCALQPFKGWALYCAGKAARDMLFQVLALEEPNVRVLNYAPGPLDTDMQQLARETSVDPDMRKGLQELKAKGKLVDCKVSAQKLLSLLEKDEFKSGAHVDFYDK

As to `CC(C)(C)Cn1c(=O)c(C(=O)NC2CC2)c(O)n2nc(NC(N)=O)cc12` [Synthesis Example 32, N-Cyclopropyl-7-hydroxy-4-neopentyl-5-oxo-2-ureido-4,5-dihydropyrazolo[1,5-a]pyrimidine-6-carboxamide], the IC50 – broadly, the midpoint of a concentration-inhibition curve – is below 1000 nM in assay [1] and 3.08 nM in assay [2].
Turning to `COc1cnc(Nc2cc3n(CC(C)(C)C)c(=O)c(C(=O)NC4CC4)c(O)n3n2)cn1` [Synthesis Example 16, N-Cyclopropyl-7-hydroxy-2-((5-methoxypyrazin-2-yl)amino)-4-neopentyl-5-oxo-4,5-dihydropyrazolo[1,5-a]pyrimidine-6-carboxamide], the concentration for half-maximal inhibition (IC50) was below 1000 nM in assay [1] and 1.96 nM in assay [2].
In the case of `CC(C)(C)Cn1c(=O)c(C(=O)NC2CC2)c(O)n2nc(Nc3ccncn3)cc12` [Synthesis Example 12, N-Cyclopropyl-7-hydroxy-4-neopentyl-5-oxo-2-(pyrimidin-4-ylamino)-4,5-dihydropyrazolo[1,5-a]pyrimidine-6-carboxamide], the 50% inhibitory concentration (IC50) in assay [1] was below 1000 nM; in assay [2], 1.41 nM.
`CC(C)Cn1c(=O)c(C(=O)NC2CC2)c(O)n2ncc(/C=C/C(=O)N3CCOCC3)c12` [Synthesis Example 10, (E)-N-Cyclopropyl-7-hydroxy-4-isobutyl-3-(3-morpholino-3-oxoprop-1-en-1-yl)-5-oxo-4,5-dihydropyrazolo[1,5-a]pyrimidine-6-carboxamide]: the values for the IC50 in assay [1] and in assay [2] were below 1000 nM and 0.68 nM, respectively.
Take `CC(C)(C)Cn1c(=O)c(C(=O)NC2CC2)c(O)n2nc(C(N)=O)cc12` [Synthesis Example 33, N6-Cyclopropyl-7-hydroxy-4-neopentyl-5-oxo-4,5-dihydropyrazolo[1,5-a]pyrimidine-2,6-dicarboxamide]: the IC50 in assay [1] was below 1000 nM; in assay [2], 0.65 nM.
